The values that follow come from US10428115B2, “Dynorphin A analogs with bradykinin receptors specificity for modulation of neuropathic pain” (THE ARIZONA BOARD OF REGENTS ON BEHALF OF THE UNIVERSITY OF …, priority 2013, dated 2019).

For series [1], the target named is rat brain bradykinin receptors. Nature of the series: Radioligand competition binding against [3H]DALKD in rat brain membranes. As to conditions: for IC50: [3H]DALKD. As for the experimental part:
Binding affinities of dynorphin A analogs at the bradykinin receptors were determined by radioligand competition analysis using [^3H]DALKD or [^3H]BK in rat brain membranes or transfected HEK 293 cells expressing the human B2R. Crude rat brain membranes were pelleted and resuspended in 50 mM Tris buffer containing 50 μg/mL bacitracin, 10 μM captopril, 100 μM PMSF, and 5 mg/mL BSA. 10 concentrations of a test compound were each incubated with 50 μg of membranes and [^3H]DALKD (1 nM, 76.0 Ci/mmol) or [^3H]BK (1 nM, 85.4 Ci/mmol) at 25° C. for 2 h. Non-specific binding was defined by that in the presence of […] KD in all assays. Reactions were terminated by rapid filtration through Whatman GF/B filters presoaked in 1% polyethyleneimine, followed with four washes of 2 mL cold saline. Radioactivity was determined by liquid scintillation counting in a Beckman LS5000 TD. Data were analyzed by non-linear least squares analysis using GraphPad Prism (Version 4). […]
In general terms: In a radioligand displacement assay an active substance lowers the binding of a labelled ligand.

Another series deals with naive rats. The series is described as follows: Motor function and paralysis after intrathecal injection (hindlimb tests, tail-flick) in naive rats. Format: in vivo, rat. As to conditions: intrathecal injection, naive rats. As for the experimental part: Intrathecal (i.th.) catheterization. While under ketamine/xylazine (80/12 mg/kg, i.p.) anesthesia, some groups of rats were implanted with i.th. catheters (polyethylene 10, 7.8 cm) through atlanto-occipital membrane extended to the level of the lumbar spinal cord for drug administration. Animals were allowed to recover for 7 days. Drugs were injected in a volume of 5 μl, followed by a 1 μl air bubble and a 9 μl saline flush.
Tail-flick test. The hot-water tail-flick test was performed by placing the distal third of the tail in a water bath maintained at 52° C. The latency until tail withdrawal from the bath was determined and compared among the treatments. A 10 sec cutoff was used to avoid tissue damage. Data were converted to percentage of antinociception by the following formula: (response latency−baseline latency)/(cutoff−baseline latency)*100.

Series [2] is described as follows: Stability in plasma (t1/2).
The next series deals with guinea pig ileum. The conditions noted are these: compared with the enkephalins and β-endorphin; cited from earlier work.
The mark [3] stands for this setting: Table 5, rat brain bradykinin receptors, pH 7.4, read-out: IC50 (nM) at pH 7.4, N > 2.
The mark [4] stands for this setting: Table 2, rat brain bradykinin receptors, pH 7.4, read-out: IC50 (nM) at pH 7.4, n > 2.
[5] abbreviates: Table 3, rat brain bradykinin receptors, pH 7.4, read-out: IC50 (nM) at pH 7.4, N > 2.
Where [6] appears, read: Table 4, rat brain bradykinin receptors, pH 7.4, read-out: IC50 (nM) at pH 7.4, N > 2.
[7] abbreviates: Table 6, rat brain bradykinin receptors, pH 6.8, read-out: IC50 (nM), cell marked at pH 6.8.
[8] abbreviates: Table 1, brain bradykinin receptors, pH 6.8, read-out: IC50 (nM) at pH 6.8, n ≥ 2.
Where [9] appears, read: Table 1, brain bradykinin receptors, pH 7.4, read-out: IC50 (nM) at pH 7.4, n ≥ 2.
[10] abbreviates: Table 6, rat brain bradykinin receptors, pH 7.4, read-out: IC50 (nM) at pH 7.4, N > 2.
Setting [11] is: Table 5, rat brain bradykinin receptors, pH 6.8, read-out: IC50 (nM), cell marked at pH 6.8.

Read-outs that look alike come from different tables or passages of the source. Square brackets hold non-standard residues; d marks the D form. Ends that are not written are not given here. Nle = CCCC[C@H](N)C(=O)O

In the case of “GFLRIRPK [LYS1045, Gly-Phe-Leu-Arg-Ile-Arg-Pro-Lys]”, the 50% inhibitory concentration (IC50) in series [1] (setting [3]) stood at 130 nM.

As to “GFLRRIRPKL [LYS1024, Gly-Phe-Leu-Arg-Arg-Ile-Arg-Pro-Lys-Leu]”, the IC50 in series [1] (setting [4]) amounted to 280 nM.

Take “FLRIRPK [AP107-1, Ac-Phe-Leu-Arg-Ile-Arg-Pro-Lys]”: the concentration for half-maximal inhibition (IC50) in series [1] (setting [5]) and in series [1] (setting [6]) was 120 nM throughout.

Turning to “GFLRRIR [Analogs J104, Gly-Phe-Leu-Arg-Arg-Ile-Arg]”, the IC50 in series [1] (setting [4]) came to 780 nM.

As to “SH124: modified dynorphin A analog; Table 6 prints only changes: Nle at 8, Lys at 9, Nle at 12 ([Nle]KPK[Nle]K; ends and bridges not checked; also: modified dynorphin A analog, full sequence beyond listed fragment not given here)”, the IC50 in series [1] (setting [7]) was determined as 78 nM.

Consider “LRIRPKLK [LYS1040, Leu-Arg-Ile-Arg-Pro-Lys-Leu-Lys]”, for which the IC50 in series [1] (setting [8]) was determined as 30 nM; in series [1] (setting [9]), 68 nM; in series [1] (setting [3]), 68 nM.

As to “AN108-4: dynorphin A analog; Table 4 prints only changes: Ac-DPhe at 4, Nle at 5, Nle at 8, Arg at 11 (Ac-[dF][Nle]R[Nle]RPR)”, the half-maximal inhibitory concentration (IC50) in series [1] (setting [6]) stood at 54 nM.

On to “AN109: dynorphin A analog; Table 4 prints only changes: Ac- in Gly^3 column, Nle at 5, Nle at 8, Arg at 11 (Ac-GF[Nle]R[Nle]RPR)”, for which the 50% inhibitory concentration (IC50) in series [1] (setting [6]) was determined as 210 nM.

As for WLRIRPK [AN103], the half-inhibitory concentration (IC50) in series [1] (setting [10]) was determined as 190 nM.

For the compound “GFLRRI [LYS1004, Gly-Phe-Leu-Arg-Arg-Ile]”, in series [1] (setting [4]), the half-inhibitory concentration (IC50) stood at 2300 nM.

In the case of “LRIRPK [LYS1043, Leu-Arg-Ile-Arg-Pro-Lys]”, in series [1] (setting [3]), the IC50 worked out at 180 nM.

With “GFLRIRPKLK [LYS1042, Gly-Phe-Leu-Arg-Ile-Arg-Pro-Lys-Leu-Lys]”, the IC50 came out at 26 nM in series [1] (setting [8]), 41 nM in series [1] (setting [9]) and 43 nM in series [1] (setting [3]).

For the compound “IRPKLK [LYS1039, Ile-Arg-Pro-Lys-Leu-Lys]”, the IC50 in series [1] (setting [8]) is 63 nM; in series [1] (setting [9]), 81 nM.

With `CC[C@H](C)[C@H](NC(=O)[C@H](CCCNC(=N)N)NC(=O)[C@H](CCCNC(=N)N)NC(=O)[C@H](CC(C)C)NC(=O)[C@H](Cc1ccccc1)NC(=O)CNC(=O)CN)C(=O)N[C@@H](CCCNC(=N)N)C(=O)N1CCC[C@H]1C(=O)N[C@@H](CCCCN)C(=O)N[C@@H](CC(C)C)C(=O)N[C@@H](CCCCN)C(=O)O` [Dyn (2-13), Gly-Gly-Phe-Leu-Arg-Arg-Ile-Arg-Pro-Lys-Leu-Lys, reference compound], the concentration for half-maximal inhibition (IC50) in series [1] (setting [8]) came to 21 nM; in series [1] (setting [9]), 170 nM. Further, in the series on naive rats, the “motor function after intrathecal (spinal) injection” value is “produces disturbances of motor function and antinociception”.

GFLRR [BP006D, Gly-Phe-Leu-Arg-Arg]: the IC50 in series [1] (setting [4]) turned out to be 8100 nM.

RPKLK [LYS1113, Arg-Pro-Lys-Leu-Lys]: the IC50 in series [1] (setting [8]) is 58 nM.

As for “Ac-Phe-Leu-Arg-Ile-Arg-Pro-DLys (Ac-FLRIRP[dK]) [AP111]”, in series [1] (setting [5]), the 50% inhibitory concentration (IC50) was determined as 550 nM.

Regarding “RIRPKL [RK108, Arg-Ile-Arg-Pro-Lys-Leu-NH2]”, in series [1] (setting [5]), the IC50 amounted to 6300 nM.

Consider IRPKL [RK107, Ile-Arg-Pro-Lys-Leu-NH2], for which the half-inhibitory concentration (IC50) in series [1] (setting [5]) is 8700 nM.

Turning to `CC[C@H](C)[C@H](NC(=O)[C@H](CCCNC(=N)N)NC(=O)[C@@H](CC(C)C)NC(=O)[C@@H](N)Cc1ccccc1)C(=O)N[C@@H](CCCNC(=N)N)C(=O)N1CCC[C@H]1C(=O)N[C@@H](CCCCN)C(=O)O` [SH145], the IC50 in series [1] (setting [7]) was 99 nM. The “binding affinity at bradykinin receptors (in words)” value in series [1] (rat brain bradykinin receptors) is recorded as “retained the same high binding affinity as LYS1044”. Further, in series [2], the half-life was > 24 h.

Take “GFLRRIRPK [LYS1027, Gly-Phe-Leu-Arg-Arg-Ile-Arg-Pro-Lys]”: the half-inhibitory concentration (IC50) in series [1] (setting [4]) was determined as 130 nM.

As for “GFLRRIRPKLK [LYS1021, Gly-Phe-Leu-Arg-Arg-Ile-Arg-Pro-Lys-Leu-Lys]”, in series [1] (setting [4]), the half-maximal inhibitory concentration (IC50) is 320 nM.

Turning to “LYS1107: modified dynorphin A analog; Table 6 prints only the change: Nle at position 12 (PK[Nle]K; ends and bridges not checked; also: modified dynorphin A analog, full sequence beyond listed fragment not given here)”, the IC50 in series [1] (setting [10]) was 72 nM.

As to GFLR [LYS1031, Gly-Phe-Leu-Arg-NH2], the half-inhibitory concentration (IC50) in series [1] (setting [5]) was > 10000 nM.

Take “AN108-1: dynorphin A analog; Table 4 prints only changes: Ac- at 4, Nle at 5, Nle at 8, Arg at 11 (Ac-F[Nle]R[Nle]RPR)”: the IC50 in series [1] (setting [6]) was found to be 140 nM.

As for FIRIRPR [AN105], the IC50 in series [1] (setting [10]) is 110 nM.

“GGFLRIRPKLK [CYF103, Gly-Gly-Phe-Leu-Arg-Ile-Arg-Pro-Lys-Leu-Lys]”: the 50% inhibitory concentration (IC50) in series [1] (setting [8]) and in series [1] (setting [11]) was 41 nM in each case.

For FLRLRPR [AN106], the IC50 in series [1] (setting [10]) turned out to be 100 nM.

Take FLRIRPR [AN104]: the concentration for half-maximal inhibition (IC50) in series [1] (setting [6]) and in series [1] (setting [10]) was 210 nM throughout.

As to “FLRRIRPK [Analogs S1F, Phe-Leu-Arg-Arg-Ile-Arg-Pro-Lys-NH2]”, in series [1] (setting [5]), the concentration for half-maximal inhibition (IC50) worked out at 6800 nM.

GFLR [LYS1035, Gly-Phe-Leu-Arg]: the half-inhibitory concentration (IC50) in series [1] (setting [4]) and in series [1] (setting [5]) was 950 nM each time.

On to “FLRRIRPK [LYS1026, Phe-Leu-Arg-Arg-Ile-Arg-Pro-Lys]”, for which the 50% inhibitory concentration (IC50) was determined as 69 nM in series [1] (setting [8]), 140 nM in series [1] (setting [9]) and 140 nM in series [1] (setting [5]).

Take PKLK [LYS1038, Pro-Lys-Leu-Lys]: the figures for the IC50 in series [1] (setting [8]) and in series [1] (setting [9]) were 210 nM and 120 nM, respectively.

Consider “FLRRIRRPK [SH114, Phe-Leu-Arg-Arg-Ile-Arg-Arg-Pro-Lys]”, for which the IC50 in series [1] (setting [11]) was found to be 74 nM.

Regarding “Tyr-Gly-Gly-Phe-Leu-Arg-Arg-Ile-Arg-Pro-Lys-Leu-Lys (YGGFLRRIRPKLK; listed as Homo sapiens) [dynorphin A-(1-13)]”, the “activity in guinea pig ileum test” value in the series on guinea pig ileum is “substantially more active than the enkephalins and β-endorphin”.

“RIRPKLK [LYS1114, Arg-Ile-Arg-Pro-Lys-Leu-Lys]”: the concentration for half-maximal inhibition (IC50) in series [1] (setting [8]) came out at 72 nM.

With “GFLRRIRP [BP1004D, Gly-Phe-Leu-Arg-Arg-Ile-Arg-Pro]”, the IC50 in series [1] (setting [4]) amounted to 1200 nM.

Regarding “GFLRIR [Analogs J101, Gly-Phe-Leu-Arg-Ile-Arg]”, the concentration for half-maximal inhibition (IC50) in series [1] (setting [3]) amounted to 620 nM.

Take “LRRIRPKL [LYS1022, Leu-Arg-Arg-Ile-Arg-Pro-Lys-Leu]”: the concentration for half-maximal inhibition (IC50) in series [1] (setting [5]) worked out at 7100 nM.

On to “AN101: modified dynorphin A analog; Table 6 prints only the change: Nle at position 8 (FLR[Nle]RPK)”, for which the IC50 in series [1] (setting [10]) amounted to 140 nM.

Usually IC50 stands for the midpoint of a concentration-inhibition curve. Usually half-life stands for the time needed for the level to fall by half in the phase considered. A higher half-life goes with slow loss.
